In US20250074892A1, “CARBONYL BRIDGED HETEROCYCLIC COMPOUND, AND COMPOSITION AND APPLICATION THEREOF” (BEIJING SCITECH-MQ PHARMACEUTICALS LIMITED, priority 2022, published 2025):
Like-named read-outs stand apart in the source and are kept apart here.

Assay: Mouse PK&BBB (pharmacokinetics and brain penetration)
Assay type: in vivo, CD-1 mice
Description: In this assay, the pharmacokinetic characteristics and ability to penetrate the blood-brain barrier of the compounds of the present application were assayed after administration of some of the compounds of the present application to SD rats, CD-1 mice or beagle dogs by single oral administration and intravenous injection.
(§1) 1. Intravenous (IV) injection group: an appropriate amount of the assay compound was weighed, and completely dissolved in an appropriate volume of vehicle. The mixture was stirred, vortexed and/or sonicated. Once a solution was obtained, the vehicle was gradually added to a final volume to reach the target concentration. The solution was vortexed, and sonicated to obtain a homogeneous solution. The solution was filtered through a 0.22 m PVDF membrane.
as §1, with “2. Oral (PO)” for “1. Intravenous (IV) injection”, “solution.” for “solution. The solution was filtered through a 0.22 m PVDF membrane.”
Meanwhile, the IV group was not fasted and the PO group was fasted overnight (>12 hrs) and given food 2 hrs after drug administration. All animals had free access to water. The dosing regimen and pharmacokinetic sampling regimen are given in Table 10 and Table 11 below, respectively.
Mice were administered according to the above protocol, and blood and brain tissue samples were collected and processed at predetermined time points (collection and processing were performed according to conventional methods in the art).
The brain was weighed and homogenized by adding 4 times of ultrapure water. Six times volume of acetonitrile was added respectively to the whole blood samples and brain homogenate (20 times volume of acetonitrile was added to the whole blood sample of mouse PK). The mixture was vortexed for 1 min and then centrifuged at 4° C., 4500 rpm for 15 min. According to the instrument response, the supernatant was diluted with diluent and the sample was analyzed by LC/MS.
Pharmacokinetic parameters were calculated using WinNonlin software. The following pharmacokinetic parameters were calculated if appropriate plasma/whole blood drug concentration-time data were available: CL (clearance); Vd (apparent volume of distribution); T1/2 (elimination half-life time); Cmax (peak concentration); Tmax (time to peak); AUC (area under plasma drug concentration-time curve); MRT (mean retention time); F % (bioavailability).

[1] = CD-1, mouse, whole blood, iv, 2 mg/kg, IV 2 mg/kg, read-out: Blood drug concentration
[2] = CD-1, mouse, whole blood, po, 20 mg/kg, PO 20 mg/kg, read-out: Blood drug concentration

O=C(C1CCN(c2cc(-c3cc(OCCCO)ccc3F)ccn2)CC1)N1N=CC[C@H]1c1cc(F)cc(F)c1 (racemic) [Example 40]
Kp at 2 h (CD-1, brain / whole blood, PO 20 mg/kg, 2 h after administration, read-out: Brain/blood ratio): 1.85
concentration at 2 h (CD-1, mouse, brain, po, 20 mg/kg, PO 20 mg/kg, 2 h after administration, read-out: Brain concentration): 244 ng/g
concentration at 0 h [1]: 0 ng/mL
concentration at 0.083 h (CD-1, mouse, whole blood, iv, 2 mg/kg, IV 2 mg/kg, 0.083 hr, read-out: Blood drug concentration): 632 ± 86 ng/mL
concentration at 0.25 h [1]: 323 ± 81 ng/mL
concentration at 0.5 h [1]: 150 ± 53 ng/mL
concentration at 1 h [1]: 60.7 ± 28.5 ng/mL
concentration at 2 h (CD-1, mouse, whole blood, iv, 2 mg/kg, IV 2 mg/kg, 2 hr, read-out: Blood drug concentration): 12.3 ± 8.4 ng/mL
concentration at 4 h [1]: 1.77 ± 1.12 ng/mL
concentration at 7 hr [1]: 0.854 ng/mL
concentration at 0 h [2]: 0 ng/mL
concentration at 0.25 h [2]: 284 ± 26 ng/mL
concentration at 0.5 h [2]: 405 ± 46 ng/mL
concentration at 1 h [2]: 399 ± 77 ng/mL
concentration at 2 h (CD-1, mouse, whole blood, po, 20 mg/kg, PO 20 mg/kg, 2 hr, read-out: Blood drug concentration): 163 ± 2 ng/mL
concentration at 4 h [2]: 34.9 ± 19 ng/mL
concentration at 7 hr [2]: 4.85 ± 3.83 ng/mL
concentration at 2 h (CD-1, mouse, whole blood, po, 20 mg/kg, PO 20 mg/kg, whole blood, 2 h after administration, read-out: Blood drug concentration): 132 ng/mL
AUC(0-inf) (CD-1, whole blood, IV 2 mg/kg): 308 ± 82 ng·h/mL
AUC(0-t) (CD-1, whole blood, IV 2 mg/kg): 307 ± 82 ng·h/mL
Vd (CD-1, whole blood, IV 2 mg/kg): 6.97 ± 1.13 L/kg
half-life (CD-1, whole blood, IV 2 mg/kg): 45.3 ± 17.9 min
clearance (CD-1, whole blood, IV 2 mg/kg, read-out: Cl—obs): 114 ± 30.5 mL/min/kg
AUC(0-inf) (CD-1, whole blood, PO 20 mg/kg): 869 ± 57 ng·h/mL
AUC(0-t) (CD-1, whole blood, PO 20 mg/kg): 861 ± 54 ng·h/mL
Cmax (CD-1, whole blood, PO 20 mg/kg): 421 ± 64 ng/mL
Tmax (CD-1, whole blood, PO 20 mg/kg): 50 ± 17.3 min
half-life (CD-1, whole blood, PO 20 mg/kg): 58 ± 12.5 min
bioavailability (CD-1, whole blood, PO 20 mg/kg vs IV 2 mg/kg): 28.2 ± 1.9%
